Results reported in patent US10947196B2, “Beta adrenergic agonist and methods of using the same” (CURASEN THERAPEUTICS, INC., priority 2019, dated 2021).
Where two headings read alike, the source gives them in different places.

Columns and labels:
[1] = Mouse pharmacokinetic studies; assay type: in vivo, male C57BL/6J mice; parameters: AUClast/D: unit not given here; conditions: PO 5 mg/kg; for AUC(0-inf) / AUC(0-t) / Cmax / Tmax / half-life / MRT inf: male, C57BL/6J; for MRT inf: read-out: MRTInf—obs
Method: The rat pharmacokinetics studies of exemplary compounds 03-3, 03-5, and 03-115 were conducted with male SD rats. These rats were typically about 6-8 weeks old, weighing 200 g to 300 g. Animals were fasted overnight and free access to food 4 hours after dosing. A required volume of vehicle was added to reach the target concentration of the test article and vehicle component to prepare for the dosing. The dosing vehicle was PEG400 or 30% PEG400 in saline for IV, or 0.5% methylcellulose in water for PO. For IV dosing, the animals were administered intravenously via tail vein. For PO dosing, the animals were administered via oral gavage. After dosing, blood sample was collected (˜0.2 mL per time point) through jugular vein or heart puncture. Blood of each sample was transferred into plastic micro centrifuge tubes containing EDTA-K2. Collection tubes with blood samples and anticoagulant were inverted several times for proper mixing of the tube contents and then placed on wet ice. The blood samples were centrifuged at 2000 g for 5 minutes at 4° C. to obtain plasma which was stored in a freezer at −75±15° C. prior to analysis. Samples were analyzed using LC-MS/MS. WinNonlin were used for pharmacokinetic calculations.
Mouse pharmacokinetics studies of exemplar compounds 03-3 and 03-5 were conducted substantially similarly to the rat pharmacokinetic studies, instead using male C57BL/6J mice. These mice were typically about 6-8 weeks old, weighing 20 g to 30 g. Animals were free access to food before dosing. Sample amount was ˜0.03 mL per time point and sample site was dorsal metatarsal or heart puncture.

[2] = Hepatocyte stability (human); assay type: in vitro ADME; conditions: 0.5×10^6 viable cells/mL
Method: 10 mM and 100 μM stock solutions of test compound(s) and a positive control were prepared in appropriate solvent (DMSO). In separate conical tubes, the 10 mM test compound and the positive control were diluted to 100 μM by combining 198 μL of 50% acetonitrile/50% water and 2 μL of 10 mM stock. The 100 μM test compound and the positive control were diluted to 30 μM by combining 140 μL of 50% acetonitrile/50% water and 60 μL of 100 μM stock solution. The 100 μM test compound and the positive control were diluted to 10 μM by combining 180 μL of 50% acetonitrile/50% water and 20 μL of 100 μM stock solution. The 100 μM test compound and the positive control were diluted to 3 μM by combining 194 μL of 50% acetonitrile/50% water and 6 μL of 100 μM stock solution.
Incubation medium (William's E Medium supplemented with GlutaMAX) and hepatocyte thawing medium was placed in a 37° C. water bath, and allowed to warm for at least 15 minutes prior to use. A vial of cryopreserved hepatocytes from storage was then removed, ensuring that the vial remains at cryogenic temperatures until thawing process ensues. Cells were thawed by placing the vial in a 37° C. water bath and gently shaking the vial for 2 minutes. After thawing was completed, the vial was sprayed with 70% ethanol and transferred to a biosafety cabinet.
A wide-bore pipette tip was used to transfer hepatocytes into 50 mL conical tube containing thawing medium. The 50 mL conical tube was placed into a centrifuge and spun at 100 g for 10 minutes. Upon completion of spin, the thawing medium was aspirated and the hepatocytes were resuspended in enough incubation medium to yield ˜1.5×10^6 cells/mL.
Using AOPI staining solution, cells were counted and the viable cell density was determined. Cells with poor viability (<75% viability) are not acceptable for use. […]
All calculations were carried out using Microsoft Excel. Peak areas were determined from extracted ion chromatograms. […]
The in vitro half-life (in vitro t1/2) was determined from the slope value: in vitro t1/2=0.693/k

SMILES | AUClast/D [1] | AUC—% Extrap—obs [1] [%] | F [1] [%] | AUC(0-inf) ([1]; plasma) [ng·h/mL] | AUC(0-t) ([1]; plasma) [ng·h/mL] | Cmax ([1]; plasma) [ng/mL] | Tmax ([1]; plasma) [h] | half-life ([1]; plasma) [h] | MRT inf ([1]; plasma) [h] | Hepatocyte stability, Human [2] | AUC(0-inf) ([1]; in vivo) [ng·h/mL] | Cmax ([1]; in vivo) [ng/mL] | Tmax ([1]; in vivo) [h] | MRT inf ([1]; in vivo) [h]
CC(C)(C)NC[C@H](O)c1cccc(C#N)n1 [Compound 03-5, (S)-6-(2-(tert-butylamino)-1-hydroxyethyl)picolinonitrile] | 1214 | 0.0845 | 163 | 6080 | 6070 | 1940 | 0.917 | 2.51 | 2.43 | 0.36-0.59 μL/min/10^6 cells |  |  |  | 
CC(C)(C)NC[C@H](O)c1cccc(C(F)(F)F)n1 [Compound 03-3] | 774 | 0.958 | 85.1 | 3910 | 3870 | 1020 | 0.25 | 3.78 | 4.08 | 0.9 μL/min/10^6 cells |  |  |  | 
Cc1ncccc1[C@@H](O)CNC(C)(C)C [Compound 03-115] |  |  | 112 |  |  |  |  |  |  | 0.32 μL/min/10^6 cells | 3020 | 1750 | 0.5 | 1.8
